Measurements as given in PMC5761851, “Application of a phenotypic drug discovery strategy to identify biological and chemical starting points for inhibition of TSLP production in lung epithelial cells” (PLoS ONE, 2018).

Tests used:
NK2 = target: T1, NK2 (Homo sapiens, UniProt P21452); test: BioPrint panel: NK2 (h) (agonist); format: binding; settings: 1 micromolar, read-out: percentage of inhibition of activity
T1 construct: purchased Eurofins Pharma Discovery Services (KinaseProfiler; Cerep BioPrint panel)
Text: (§1) Supplement pone.0189247.s004.xlsx, sheet "Bioprint Selectivity Panel" | column: %

5-HT1B = target: T2, 5-HT1B (Rattus norvegicus, UniProt P28564); test: BioPrint panel: 5-HT1B (antagonist); format: binding; settings: 1 micromolar, read-out: percentage of inhibition of activity
T2 construct: purchased Eurofins Pharma Discovery Services (KinaseProfiler; Cerep BioPrint panel)
Text: as §1

AT1 = target: T3, AT1 (Homo sapiens, UniProt P30556); test: BioPrint panel: AT1 (h) (antagonist); format: binding; settings: 1 micromolar, read-out: percentage of inhibition of activity
T3 construct: purchased Eurofins Pharma Discovery Services (KinaseProfiler; Cerep BioPrint panel)
Text: as §1

H1 = target: T4, H1 (Homo sapiens, UniProt P35367); test: BioPrint panel: H1 (h) (antagonist); format: binding; settings: 1 micromolar, read-out: percentage of inhibition of activity
T4 construct: purchased Eurofins Pharma Discovery Services (KinaseProfiler; Cerep BioPrint panel)
Text: as §1

ATPase (Na+/K+) = test: BioPrint panel: ATPase (Na+/K+); format: biochemical; settings: 1 micromolar
Text: as §1

CCK1 (CCKA) = target: T5, CCK1 (CCKA) (Homo sapiens, UniProt P32238); test: BioPrint panel: CCK1 (CCKA) (h) (agonist); format: binding; settings: 1 micromolar, read-out: percentage of inhibition of activity
T5 construct: purchased Eurofins Pharma Discovery Services (KinaseProfiler; Cerep BioPrint panel)
Text: as §1

5-HT1A = target: T6, 5-HT1A (Homo sapiens, UniProt P08908); test: BioPrint panel: 5-HT1A (h) (agonist); format: binding; settings: 1 micromolar, read-out: percentage of inhibition of activity
T6 construct: purchased Eurofins Pharma Discovery Services (KinaseProfiler; Cerep BioPrint panel)
Text: as §1

APJ (apelin) = target: T7, APJ (apelin) (Homo sapiens, UniProt P35414); test: BioPrint panel: APJ (apelin) (h) (agonist); format: binding; settings: 1 micromolar, read-out: percentage of inhibition of activity
T7 construct: purchased Eurofins Pharma Discovery Services (KinaseProfiler; Cerep BioPrint panel)
Text: as §1

[1] = test system: Ca2+ channel (L, verapamil site); test: BioPrint panel: Ca2+ channel (L, verapamil site) (antagonist); format: binding; settings: 1 micromolar
Text: as §1

I1 = test: BioPrint panel: I1 (agonist); format: binding; settings: 1 micromolar
Text: as §1

alpha 1B = target: T8, alpha 1B (Homo sapiens, UniProt P35368); test: BioPrint panel: alpha 1B (h) (antagonist); format: binding; settings: 1 micromolar, read-out: percentage of inhibition of activity
T8 construct: purchased Eurofins Pharma Discovery Services (KinaseProfiler; Cerep BioPrint panel)
Text: as §1

alpha 2B = target: T9, alpha 2B (Homo sapiens, UniProt P18089); test: BioPrint panel: alpha 2B (h) (antagonist); format: binding; settings: 1 micromolar, read-out: percentage of inhibition of activity
T9 construct: purchased Eurofins Pharma Discovery Services (KinaseProfiler; Cerep BioPrint panel)
Text: as §1

glucagon = target: T10, glucagon (Homo sapiens, UniProt P47871); test: BioPrint panel: glucagon (h) (agonist); format: binding; settings: 1 micromolar, read-out: percentage of inhibition of activity
T10 construct: purchased Eurofins Pharma Discovery Services (KinaseProfiler; Cerep BioPrint panel)
Text: as §1

sst1 = target: T11, sst1 (Homo sapiens, UniProt P30872); test: BioPrint panel: sst1 (h) (agonist); format: binding; settings: 1 micromolar, read-out: percentage of inhibition of activity
T11 construct: purchased Eurofins Pharma Discovery Services (KinaseProfiler; Cerep BioPrint panel)
Text: as §1

ERK2 (P42mapk) = target: T12, ERK2 (P42mapk) (Homo sapiens, UniProt P28482); test: BioPrint panel: ERK2 (h) (P42mapk); format: biochemical; settings: 1 micromolar, read-out: percentage of inhibition of activity
T12 construct: purchased Eurofins Pharma Discovery Services (KinaseProfiler; Cerep BioPrint panel)
Text: as §1

NOP (ORL1) = target: T13, NOP (ORL1) (Homo sapiens, UniProt P41146); test: BioPrint panel: NOP (ORL1) (h) (agonist); format: binding; settings: 1 micromolar, read-out: percentage of inhibition of activity
T13 construct: purchased Eurofins Pharma Discovery Services (KinaseProfiler; Cerep BioPrint panel)
Text: as §1

M4 = target: T14, M4 (Homo sapiens, UniProt P08173); test: BioPrint panel: M4 (h) (antagonist); format: binding; settings: 1 micromolar, read-out: percentage of inhibition of activity
T14 construct: purchased Eurofins Pharma Discovery Services (KinaseProfiler; Cerep BioPrint panel)
Text: as §1

M2 = target: T15, M2 (Homo sapiens, UniProt P08172); test: BioPrint panel: M2 (h) (antagonist); format: binding; settings: 1 micromolar, read-out: percentage of inhibition of activity
T15 construct: purchased Eurofins Pharma Discovery Services (KinaseProfiler; Cerep BioPrint panel)
Text: as §1

CRF1 = target: T16, CRF1 (Homo sapiens, UniProt P34998); test: BioPrint panel: CRF1 (h) (agonist); format: binding; settings: 1 micromolar, read-out: percentage of inhibition of activity
T16 construct: purchased Eurofins Pharma Discovery Services (KinaseProfiler; Cerep BioPrint panel)
Text: as §1

CDK2 (cycA) = target: T17, CDK2 (cycA) (Homo sapiens, UniProt P24941); test: BioPrint panel: CDK2 (h) (cycA); format: biochemical; settings: 1 micromolar, read-out: percentage of inhibition of activity
T17 construct: purchased Eurofins Pharma Discovery Services (KinaseProfiler; Cerep BioPrint panel)
Text: as §1

PDE2A1 = PDE2A1 (Homo sapiens, UniProt O00408); test: BioPrint panel: PDE2A1 (h); format: biochemical; settings: 1 micromolar, read-out: percentage of inhibition of activity
Text: as §1

T9 sequence (P18089 whole entry): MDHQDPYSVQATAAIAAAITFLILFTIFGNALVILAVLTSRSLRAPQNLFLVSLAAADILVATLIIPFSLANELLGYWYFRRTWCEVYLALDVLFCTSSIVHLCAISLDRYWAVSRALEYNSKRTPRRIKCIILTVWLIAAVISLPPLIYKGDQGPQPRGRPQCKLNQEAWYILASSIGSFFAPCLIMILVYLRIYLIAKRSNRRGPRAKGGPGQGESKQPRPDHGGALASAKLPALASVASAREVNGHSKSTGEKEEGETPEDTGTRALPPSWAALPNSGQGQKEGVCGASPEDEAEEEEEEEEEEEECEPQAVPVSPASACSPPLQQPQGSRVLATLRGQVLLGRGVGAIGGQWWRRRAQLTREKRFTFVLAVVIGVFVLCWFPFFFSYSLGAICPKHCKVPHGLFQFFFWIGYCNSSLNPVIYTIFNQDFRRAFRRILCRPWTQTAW
T6 sequence (P08908 whole entry): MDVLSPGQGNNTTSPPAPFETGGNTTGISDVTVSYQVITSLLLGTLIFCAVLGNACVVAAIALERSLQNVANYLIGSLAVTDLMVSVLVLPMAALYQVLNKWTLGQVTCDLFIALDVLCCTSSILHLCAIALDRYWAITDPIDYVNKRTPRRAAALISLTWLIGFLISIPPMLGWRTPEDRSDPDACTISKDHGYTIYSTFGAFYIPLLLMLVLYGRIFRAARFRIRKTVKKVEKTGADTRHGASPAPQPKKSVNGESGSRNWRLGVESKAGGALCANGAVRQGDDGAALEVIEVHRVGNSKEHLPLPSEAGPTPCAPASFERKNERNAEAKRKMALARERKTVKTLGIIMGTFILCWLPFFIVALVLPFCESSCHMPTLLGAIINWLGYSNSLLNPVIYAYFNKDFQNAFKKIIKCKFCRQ
T7 sequence (P35414 whole entry): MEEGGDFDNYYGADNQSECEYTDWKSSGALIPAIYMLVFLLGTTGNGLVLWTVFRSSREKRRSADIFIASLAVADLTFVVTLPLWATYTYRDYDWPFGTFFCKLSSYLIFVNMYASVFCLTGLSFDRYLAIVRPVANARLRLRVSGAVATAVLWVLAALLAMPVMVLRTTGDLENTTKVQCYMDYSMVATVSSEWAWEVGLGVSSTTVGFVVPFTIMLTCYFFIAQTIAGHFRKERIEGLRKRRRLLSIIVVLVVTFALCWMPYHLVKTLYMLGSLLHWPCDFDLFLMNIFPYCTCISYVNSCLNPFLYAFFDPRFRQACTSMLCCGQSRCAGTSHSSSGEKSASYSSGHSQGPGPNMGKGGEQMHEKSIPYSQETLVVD
Sequence of PDE2A1 (O00408 49-941 limits assumed): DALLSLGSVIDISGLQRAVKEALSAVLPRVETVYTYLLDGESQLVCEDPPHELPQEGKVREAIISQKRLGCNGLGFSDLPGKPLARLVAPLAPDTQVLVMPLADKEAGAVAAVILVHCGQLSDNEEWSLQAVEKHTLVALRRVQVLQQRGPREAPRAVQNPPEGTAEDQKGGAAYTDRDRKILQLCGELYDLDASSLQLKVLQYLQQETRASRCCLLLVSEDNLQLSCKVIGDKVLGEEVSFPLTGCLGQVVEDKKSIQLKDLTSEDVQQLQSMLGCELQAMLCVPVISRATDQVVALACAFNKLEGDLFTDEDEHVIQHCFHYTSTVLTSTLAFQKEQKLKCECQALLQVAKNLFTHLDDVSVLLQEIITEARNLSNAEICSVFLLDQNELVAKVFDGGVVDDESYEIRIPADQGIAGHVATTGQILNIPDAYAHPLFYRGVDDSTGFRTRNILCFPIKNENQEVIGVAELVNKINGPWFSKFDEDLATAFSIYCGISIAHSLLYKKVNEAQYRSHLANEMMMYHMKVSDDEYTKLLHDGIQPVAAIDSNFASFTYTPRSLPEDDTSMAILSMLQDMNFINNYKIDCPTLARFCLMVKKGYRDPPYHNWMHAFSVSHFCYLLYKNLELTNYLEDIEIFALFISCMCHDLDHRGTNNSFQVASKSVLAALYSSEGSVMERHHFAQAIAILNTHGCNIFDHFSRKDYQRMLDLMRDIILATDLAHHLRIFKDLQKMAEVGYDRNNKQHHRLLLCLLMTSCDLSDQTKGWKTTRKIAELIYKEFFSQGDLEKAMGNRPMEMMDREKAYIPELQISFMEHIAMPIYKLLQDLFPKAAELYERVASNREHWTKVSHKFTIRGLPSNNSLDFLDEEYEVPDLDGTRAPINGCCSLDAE
T15 sequence (P08172 whole entry): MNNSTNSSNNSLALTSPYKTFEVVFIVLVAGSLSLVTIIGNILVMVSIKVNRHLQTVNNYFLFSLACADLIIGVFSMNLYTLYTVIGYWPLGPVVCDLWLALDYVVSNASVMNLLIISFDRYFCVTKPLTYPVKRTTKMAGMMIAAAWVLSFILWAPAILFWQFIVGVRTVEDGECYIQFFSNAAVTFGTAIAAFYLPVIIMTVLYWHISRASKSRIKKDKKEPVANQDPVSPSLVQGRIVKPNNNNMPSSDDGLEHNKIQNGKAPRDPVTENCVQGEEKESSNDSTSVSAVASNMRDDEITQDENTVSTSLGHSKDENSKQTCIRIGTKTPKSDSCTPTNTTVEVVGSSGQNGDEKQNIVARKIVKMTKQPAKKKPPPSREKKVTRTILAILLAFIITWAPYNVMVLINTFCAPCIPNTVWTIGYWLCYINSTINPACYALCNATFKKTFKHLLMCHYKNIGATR
T1 sequence (P21452 whole entry): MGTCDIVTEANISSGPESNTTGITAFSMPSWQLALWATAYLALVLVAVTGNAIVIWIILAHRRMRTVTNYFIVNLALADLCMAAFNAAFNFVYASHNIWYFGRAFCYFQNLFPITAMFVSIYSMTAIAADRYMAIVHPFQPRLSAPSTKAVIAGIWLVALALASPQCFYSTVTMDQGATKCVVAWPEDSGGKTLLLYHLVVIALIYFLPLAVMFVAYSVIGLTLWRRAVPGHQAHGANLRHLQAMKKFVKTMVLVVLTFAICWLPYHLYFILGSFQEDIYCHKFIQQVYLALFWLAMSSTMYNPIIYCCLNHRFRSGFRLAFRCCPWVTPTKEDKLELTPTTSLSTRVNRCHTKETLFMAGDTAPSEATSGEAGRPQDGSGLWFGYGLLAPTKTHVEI
T3 sequence (P30556 whole entry): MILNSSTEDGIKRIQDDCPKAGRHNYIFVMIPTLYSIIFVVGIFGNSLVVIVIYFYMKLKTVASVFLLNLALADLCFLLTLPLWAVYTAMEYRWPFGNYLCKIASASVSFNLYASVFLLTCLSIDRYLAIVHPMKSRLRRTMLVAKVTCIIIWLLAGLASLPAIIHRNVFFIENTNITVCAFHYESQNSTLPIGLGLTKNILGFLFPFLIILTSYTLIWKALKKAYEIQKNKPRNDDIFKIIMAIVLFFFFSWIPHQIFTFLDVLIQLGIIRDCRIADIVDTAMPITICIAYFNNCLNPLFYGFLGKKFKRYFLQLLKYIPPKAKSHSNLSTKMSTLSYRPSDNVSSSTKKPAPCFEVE
T12 sequence (P28482 whole entry): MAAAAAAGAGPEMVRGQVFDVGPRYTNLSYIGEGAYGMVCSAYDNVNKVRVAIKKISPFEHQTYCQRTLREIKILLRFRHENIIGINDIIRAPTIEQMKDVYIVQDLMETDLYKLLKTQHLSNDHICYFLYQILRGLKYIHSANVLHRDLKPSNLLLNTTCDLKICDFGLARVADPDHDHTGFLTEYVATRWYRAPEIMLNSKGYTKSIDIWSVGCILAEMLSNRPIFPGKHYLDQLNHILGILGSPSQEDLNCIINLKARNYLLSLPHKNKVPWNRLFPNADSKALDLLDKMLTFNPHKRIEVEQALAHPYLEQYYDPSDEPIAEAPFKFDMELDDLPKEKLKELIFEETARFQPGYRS
T5 sequence (P32238 whole entry): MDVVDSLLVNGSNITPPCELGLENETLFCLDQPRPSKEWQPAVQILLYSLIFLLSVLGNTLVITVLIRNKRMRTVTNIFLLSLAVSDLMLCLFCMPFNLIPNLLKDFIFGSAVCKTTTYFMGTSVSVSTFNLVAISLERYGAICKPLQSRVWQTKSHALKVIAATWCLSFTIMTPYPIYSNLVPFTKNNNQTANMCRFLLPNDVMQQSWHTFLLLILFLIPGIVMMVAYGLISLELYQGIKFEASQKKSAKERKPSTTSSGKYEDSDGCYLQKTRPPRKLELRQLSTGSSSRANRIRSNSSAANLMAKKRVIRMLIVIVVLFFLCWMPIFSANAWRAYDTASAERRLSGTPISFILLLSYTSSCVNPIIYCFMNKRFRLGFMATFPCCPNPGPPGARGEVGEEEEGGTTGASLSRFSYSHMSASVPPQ
T2 sequence (P28564 whole entry): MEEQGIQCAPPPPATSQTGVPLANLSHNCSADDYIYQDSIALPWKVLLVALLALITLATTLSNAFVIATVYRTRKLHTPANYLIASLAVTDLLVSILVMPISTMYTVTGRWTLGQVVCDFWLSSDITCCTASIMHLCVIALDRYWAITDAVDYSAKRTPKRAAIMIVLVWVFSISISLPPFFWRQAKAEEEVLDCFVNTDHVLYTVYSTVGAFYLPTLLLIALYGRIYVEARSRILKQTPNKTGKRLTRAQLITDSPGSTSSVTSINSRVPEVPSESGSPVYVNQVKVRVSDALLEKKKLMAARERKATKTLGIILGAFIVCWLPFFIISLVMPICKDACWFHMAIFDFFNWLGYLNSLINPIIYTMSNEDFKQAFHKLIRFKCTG
T13 sequence (P41146 whole entry): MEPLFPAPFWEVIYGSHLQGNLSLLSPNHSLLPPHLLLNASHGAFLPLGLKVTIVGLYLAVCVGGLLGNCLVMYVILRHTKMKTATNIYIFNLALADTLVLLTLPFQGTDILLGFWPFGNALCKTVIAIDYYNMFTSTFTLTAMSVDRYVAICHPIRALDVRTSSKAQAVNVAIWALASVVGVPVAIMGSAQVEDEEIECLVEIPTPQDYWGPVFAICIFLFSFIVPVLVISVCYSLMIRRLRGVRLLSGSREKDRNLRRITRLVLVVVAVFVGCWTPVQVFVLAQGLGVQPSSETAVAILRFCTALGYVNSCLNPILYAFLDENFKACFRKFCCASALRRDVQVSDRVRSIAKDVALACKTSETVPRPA

Cn1cc(-c2cccc(-c3nc(C(=O)NC4C5CC6CC4CC(O)(C6)C5)c(N)nc3N)c2)cn1 (stereo not drawn) [compound 4]
inhibition at 1 µM (NK2): -1.8%
inhibition at 1 µM (5-HT1B): -1.1%
inhibition at 1 µM (AT1): -6.4%
inhibition at 1 µM (H1): -0.5%
percentage of inhibition of activity (ATPase (Na+/K+)): 0%
inhibition at 1 µM (CCK1 (CCKA)): -0.1%
inhibition at 1 µM (5-HT1A): -1.1%
inhibition at 1 µM (APJ (apelin)): 0.8%
percentage of inhibition of activity [1]: 6.4%
percentage of inhibition of activity (I1): 11.5%
inhibition at 1 µM (alpha 1B): 2.4%
inhibition at 1 µM (alpha 2B): -6.6%
inhibition at 1 µM (glucagon): -8.3%
inhibition at 1 µM (sst1): 1.2%
inhibition at 1 µM (ERK2 (P42mapk)): 14.3%
inhibition at 1 µM (NOP (ORL1)): 12.3%
inhibition at 1 µM (M4): 0.7%
inhibition at 1 µM (M2): 19.5%
inhibition at 1 µM (CRF1): -37%
inhibition at 1 µM (CDK2 (cycA)): -7.9%
inhibition at 1 µM (PDE2A1): 6.7%
